Source: PubChem BioAssay AID330 (DTP/NCI, 2004)
Where “and” joins values, the source holds several entries; their conditions need not be identical. Equal values may be shown once. Inconclusive results and toxic doses are left out.

Tested on: P388 leukemia ip, CD2F1 mice, survival T/C
Assay: NCI In Vivo Anticancer Drug Screen. Data for tumor model P388 Leukemia (intraperitoneal) in CD2F1 (CDF1) mice
Settings: endpoint: median survival time, higher = longer survival
Procedure, shortened: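 Mice carrying the transplanted tumor received test compound or vehicle. Survival was recorded in each group, and the value is the treated-group measurement divided by that of the vehicle-treated control group.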

[1] = dose: 100.0 mg/kg/injection, schedule: Q04DX003 (ip), vehicle: saline with Tween-80
[2] = dose: 200.0 mg/kg/injection, schedule: Q04DX003 (ip), vehicle: saline with Tween-80
[3] = dose: 400.0 mg/kg/injection, schedule: Q04DX003 (ip), vehicle: saline with Tween-80
[4] = dose: 50.0 mg/kg/injection, schedule: Q01DX005 (ip), vehicle: saline with Tween-80
[5] = dose: 50.0 mg/kg/injection, schedule: Q01DX009 (ip), vehicle: Klucel (hydroxypropylcellulose) (HPC)
[6] = dose: 100.0 mg/kg/injection, schedule: Q01DX009 (ip), vehicle: Klucel (hydroxypropylcellulose) (HPC)
[7] = dose: 50.0 mg/kg/injection, schedule: Q04DX003 (ip), vehicle: saline
[8] = dose: 100.0 mg/kg/injection, schedule: Q04DX003 (ip), vehicle: saline
[9] = dose: 200.0 mg/kg/injection, schedule: Q04DX003 (ip), vehicle: saline
[10] = dose: 100.0 mg/kg/injection, schedule: Q01DX005 (ip), vehicle: Klucel (hydroxypropylcellulose) (HPC)
[11] = dose: 100.0 mg/kg/injection, schedule: Q01DX009 (ip), vehicle: saline with Tween-80
[12] = dose: 200.0 mg/kg/injection, schedule: Q01DX009 (ip), vehicle: saline with Tween-80

With `Cc1cnc(NCCCCCCNc2ncc(C)c(-c3ccccc3O)n2)nc1-c1ccccc1O` the T/C [1] was 91 % of control, the T/C [2] was 97 % of control and the T/C [3] was 91 % of control.

In the case of `COc1ccc(Cc2cc(C(C)(C)C)c(O)c(C(C)(C)C)c2)cc1`, the T/C (dose: 50.0 mg/kg/injection, schedule: Q01DX005 (ip), vehicle: distilled water + alcohol) is reported as 104 % of control, the T/C (dose: 100.0 mg/kg/injection, schedule: Q01DX005 (ip), vehicle: distilled water + alcohol) is reported as 100 % of control and the T/C (dose: 200.0 mg/kg/injection, schedule: Q01DX005 (ip), vehicle: distilled water + alcohol) is reported as 93 % of control.

`O/N=C/c1c(-c2ccccc2)nc2n1CCS2` was tested, and the T/C (dose: 100.0 mg/kg/injection, schedule: Q04DX002 (ip), vehicle: Klucel (hydroxypropylcellulose) (HPC)) was 101 % of control, the T/C (dose: 200.0 mg/kg/injection, schedule: Q04DX002 (ip), vehicle: Klucel (hydroxypropylcellulose) (HPC)) was 99 % of control and the T/C (dose: 400.0 mg/kg/injection, schedule: Q04DX002 (ip), vehicle: Klucel (hydroxypropylcellulose) (HPC)) was 98 % of control.

In the case of `COc1c2c(c(OC)c3c1C(=O)C(=O)C=C3O)OCO2`, the T/C (dose: 60.0 mg/kg/injection, schedule: Q01DX005 (ip), vehicle: Klucel (hydroxypropylcellulose) (HPC)) is reported as 104 % of control and the T/C (dose: 120.0 mg/kg/injection, schedule: Q01DX005 (ip), vehicle: Klucel (hydroxypropylcellulose) (HPC)) is reported as 113 % of control.

With `CC(=O)CC(=O)c1ccc(C)cc1.CC(=O)CC(=O)c1ccc(C)cc1.[Ni]` the T/C (dose: 3.12 mg/kg/injection, schedule: Q01DX005 (ip), vehicle: saline with Tween-80) was 97 % of control, the T/C (dose: 6.25 mg/kg/injection, schedule: Q01DX005 (ip), vehicle: saline with Tween-80) was 95 % of control and the T/C (dose: 12.5 mg/kg/injection, schedule: Q01DX005 (ip), vehicle: saline with Tween-80) was 90 % of control. The T/C (dose: 25.0 mg/kg/injection, schedule: Q04DX002 (ip), vehicle: saline with Tween-80) was 95 % of control, the T/C (dose: 25.0 mg/kg/injection, schedule: Q04DX003 (ip), vehicle: saline with Tween-80) was 97 % of control and the T/C [4] was 91 % of control. The T/C (dose: 50.0 mg/kg/injection, schedule: Q04DX002 (ip), vehicle: saline with Tween-80) was 99 % of control, the T/C (dose: 50.0 mg/kg/injection, schedule: Q04DX003 (ip), vehicle: saline with Tween-80) was 101 % of control and the T/C (dose: 100.0 mg/kg/injection, schedule: Q04DX002 (ip), vehicle: saline with Tween-80) was 105 % of control. The T/C (dose: 200.0 mg/kg/injection, schedule: Q04DX002 (ip), vehicle: saline with Tween-80) was 98 % of control.

With `Cc1c(NC(=S)Nc2c(C(C)C)cccc2C(C)C)c(=O)n(-c2ccccc2)n1C` the T/C [5] was 113 % of control, the T/C [6] was 106 % of control and the T/C (dose: 200.0 mg/kg/injection, schedule: Q01DX009 (ip), vehicle: Klucel (hydroxypropylcellulose) (HPC)) was 106 % of control.

In the case of `CC(=O)Nc1cc2nc3ccc(C)cc3oc-2c(C)c1=O`, the T/C (dose: 0.78 mg/kg/injection, schedule: Q01DX009 (ip), vehicle: other) is reported as 113 % of control, the T/C (dose: 1.56 mg/kg/injection, schedule: Q01DX009 (ip), vehicle: other) is reported as 98 % of control and the T/C (dose: 3.13 mg/kg/injection, schedule: Q01DX009 (ip), vehicle: other) is reported as 98 % of control. The T/C (dose: 6.25 mg/kg/injection, schedule: Q01DX009 (ip), vehicle: other) was 103 % of control.

`CNC(=O)OCc1c(COC(=O)NC)c2n(c1C)CCc1ccccc1-2` was tested, and the T/C (dose: 12.5 mg/kg/injection, schedule: Q01DX009 (ip), vehicle: distilled water + Tween-80) was 153 % of control.

With `O=C(CN1CCN(c2ccccc2)CC1)n1cnc2ccc([N+](=O)[O-])cc21` the T/C (dose: 60.0 mg/kg/injection, schedule: Q01DX005 (ip), vehicle: saline with Tween-80) was 96 % of control and the T/C (dose: 120.0 mg/kg/injection, schedule: Q01DX005 (ip), vehicle: saline with Tween-80) was 91 % of control.

With `COC1(c2ccccc2)C(c2ccccc2)=CC(c2ccccc2)=[N+]1[O-]` (configuration not stated) the T/C [7] was 95 % of control, the T/C [8] was 109 % of control and the T/C [9] was 95 % of control.

For `O=C(O)C(O)(c1ccccc1Cl)c1ccccc1Cl`, the T/C [1] was 105 % of control, the T/C [2] was 110 % of control and the T/C [3] was 109 % of control.

With `NC1=NC(O)C=C1` (configuration not stated) the T/C (dose: 12.5 mg/kg/injection, schedule: Q01DX005 (ip), vehicle: saline) was 105 % of control and the T/C (dose: 25.0 mg/kg/injection, schedule: Q01DX005 (ip), vehicle: saline) was 107 % of control.

`CCCCC(NC(=O)OCc1ccccc1)C(=O)NC(Cc1c[nH]c2ccccc12)C(=O)O` (configuration not stated) was tested, and the T/C (dose: 50.0 mg/kg/injection, schedule: Q01DX005 (ip), vehicle: Klucel (hydroxypropylcellulose) (HPC)) was 95 % of control, the T/C [10] was 101 % of control and the T/C (dose: 200.0 mg/kg/injection, schedule: Q01DX005 (ip), vehicle: Klucel (hydroxypropylcellulose) (HPC)) was 92 % of control.

With `Cc1cc(O)c(C=Nc2ccc3ccccc3c2)c2c1C(=O)Oc1c(CO)c(O)c(C(=O)O)c(C=Nc3ccc4ccccc4c3)c1O2` the T/C (dose: 12.5 mg/kg/injection, schedule: Q01DX005 (ip), vehicle: Klucel (hydroxypropylcellulose) (HPC)) was 86 % of control and 90 % of control, the T/C (dose: 25.0 mg/kg/injection, schedule: Q01DX005 (ip), vehicle: Klucel (hydroxypropylcellulose) (HPC)) was 104 % of control and the T/C [10] was 88 % of control and 92 % of control.

With `COc1ccc(/C=N\NC(=O)C(=O)N/N=C\c2ccc(OC)cc2)cc1` the T/C (dose: 12.5 mg/kg/injection, schedule: Q01DX009 (ip), vehicle: distilled water + alcohol) was 103 % of control, the T/C (dose: 25.0 mg/kg/injection, schedule: Q01DX009 (ip), vehicle: distilled water + alcohol) was 100 % of control and the T/C (dose: 50.0 mg/kg/injection, schedule: Q01DX009 (ip), vehicle: distilled water + alcohol) was 94 % of control. The T/C (dose: 100.0 mg/kg/injection, schedule: Q01DX009 (ip), vehicle: distilled water + alcohol) was 89 % of control and the T/C (dose: 200.0 mg/kg/injection, schedule: Q01DX009 (ip), vehicle: distilled water + alcohol) was 108 % of control.

In the case of `CNC(=S)ON1CCCCC1`, the T/C [11] is reported as 111 % of control and the T/C [12] is reported as 108 % of control.

With `CCOC(=O)c1cnc(N(C)C)nc1SC(=N)N` the T/C [7] was 100 % of control, the T/C [8] was 95 % of control and the T/C [9] was 104 % of control.

For `CC(C)(c1ccc(OCC2CO2)cc1)c1ccc(OCC2CO2)cc1` (configuration not stated), the T/C (dose: 25.0 mg/kg/injection, schedule: Q01DX009 (ip), vehicle: saline with Tween-80) was 103 % of control, the T/C (dose: 50.0 mg/kg/injection, schedule: Q01DX009 (ip), vehicle: saline with Tween-80) was 103 % of control and 107 % of control and the T/C [11] was 103 % of control. For the same compound, the T/C [12] was 109 % of control and the T/C (dose: 400.0 mg/kg/injection, schedule: Q01DX009 (ip), vehicle: saline with Tween-80) was 114 % of control.

In the case of `CCOC(=O)CC1(O)CS/C(=C(\C#N)C(=O)OCC)N1c1ccccc1` (configuration not stated), the T/C [4] is reported as 96 % of control, the T/C (dose: 100.0 mg/kg/injection, schedule: Q01DX005 (ip), vehicle: saline with Tween-80) is reported as 100 % of control and the T/C (dose: 200.0 mg/kg/injection, schedule: Q01DX005 (ip), vehicle: saline with Tween-80) is reported as 96 % of control.

With `Cc1ccccc1C1(C)C(=O)c2ccccc2C1=O` the T/C (dose: 100.0 mg/kg/injection, schedule: Q04DX002 (ip), vehicle: saline) was 101 % of control, the T/C (dose: 200.0 mg/kg/injection, schedule: Q04DX002 (ip), vehicle: saline) was 106 % of control and the T/C (dose: 400.0 mg/kg/injection, schedule: Q04DX002 (ip), vehicle: saline) was 100 % of control.

With `c1ccc([P+](NCCN[P+](c2ccccc2)(c2ccccc2)c2ccccc2)(c2ccccc2)c2ccccc2)cc1` the T/C (dose: 6.25 mg/kg/injection, schedule: Q01DX009 (ip), vehicle: saline) was 97 % of control and the T/C (dose: 12.5 mg/kg/injection, schedule: Q01DX009 (ip), vehicle: saline) was 100 % of control.

`COc1cc(C)c(C(=O)Oc2cc(C)c(C(=O)O)c(O)c2)c(O)c1` was tested, and the T/C (dose: 50.0 mg/kg/injection, schedule: Q01DX009 (ip), vehicle: saline) was 90 % of control and the T/C (dose: 100.0 mg/kg/injection, schedule: Q01DX009 (ip), vehicle: saline) was 95 % of control.

`[Cl][Hg][c]1cccc(I)c1N=Nc1ccccc1` was tested, and the T/C (dose: 2.5 mg/kg/injection, schedule: Q01DX009 (ip), vehicle: saline + alcohol) was 104 % of control and the T/C (dose: 5.0 mg/kg/injection, schedule: Q01DX009 (ip), vehicle: saline + alcohol) was 94 % of control.

With `NC(=O)c1n[nH][nH]c1=O` the T/C (dose: 50.0 mg/kg/injection, schedule: Q01DX005 (ip), vehicle: saline) was 115 % of control, the T/C (dose: 100.0 mg/kg/injection, schedule: Q01DX005 (ip), vehicle: saline) was 105 % of control and the T/C (dose: 200.0 mg/kg/injection, schedule: Q01DX005 (ip), vehicle: saline) was 115 % of control.

In the case of `CC(/C=C/c1ccccc1)=N\Nc1ccc(Cl)cc1Cl`, the T/C [5] is reported as 118 % of control and the T/C [6] is reported as 100 % of control.
